How the values were obtained:
[1] = target: T1, RXRα (Homo sapiens, UniProt P19793); experiment: RXRα receptor transactivation (Table 1); type: cell-based; conditions: RXR α; for Emax: read-out: % Eff
T1 construct: expressed in transfected cells
T1 sequence (P19793 1-462): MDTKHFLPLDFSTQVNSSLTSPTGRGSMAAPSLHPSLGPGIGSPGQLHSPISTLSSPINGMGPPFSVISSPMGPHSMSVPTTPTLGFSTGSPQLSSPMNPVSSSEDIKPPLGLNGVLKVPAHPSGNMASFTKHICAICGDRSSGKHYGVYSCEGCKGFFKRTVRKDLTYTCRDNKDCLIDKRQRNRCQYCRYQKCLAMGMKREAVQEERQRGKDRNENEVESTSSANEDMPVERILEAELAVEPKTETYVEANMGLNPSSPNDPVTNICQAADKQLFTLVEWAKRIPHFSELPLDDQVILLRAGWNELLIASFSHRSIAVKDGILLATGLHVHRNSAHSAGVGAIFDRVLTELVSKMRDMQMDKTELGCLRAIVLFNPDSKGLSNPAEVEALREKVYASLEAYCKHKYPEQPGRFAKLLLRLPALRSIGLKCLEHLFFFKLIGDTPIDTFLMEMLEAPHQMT
From the text: (§1) Other assays described below, measure the ability of the compounds of the present invention to bind to, and/or activate various retinoid receptor subtypes. When in these assays a compound binds to a given receptor subtype and activates the transcription of a reporter gene through that subtype, then the compound is considered an agonist of that receptor subtype. […] In the below described assays the ability of the compounds to bind to RARα, RARβ, RARγ, RXRα, RXRβ and RXRγ receptors, and the ability or inability of the compounds to activate transcription of a reporter gene through these receptor subtypes can be tested. […] However, some of the compounds of the invention may behave as retinoid antagonists or partial antagonists and/or as inverse agonists. Because of the complex distribution of the different retinoid receptors in various organs of the mammalian body partial agonists and partial antagonists and compounds which have the characteristics of both may lend themselves to particularly useful therapeutic applications and may avoid serious side effects of conventional retinoid drugs.
The specification of U.S. Pat. No. 5,455,265 is hereby expressly incorporated by reference.
(§2) A holoreceptor transactivation assay and a ligand binding assay which measure the antagonist/agonist like activity of the compounds of the invention, or their ability to bind to the several retinoid receptor subtypes, respectively, are described in published PCT Application No. WO WO93/11755 (particularly on pages 30-33 and 37-41) published on Jun. 24, 1993, the specification of which is also incorporated herein by reference. A detailed experimental procedure for holoreceptor transactivations has been described by Heyman et al. Cell 68, 397-406, (1992); Allegretto et al. J. Biol. Chem. 268, 26625-26633, and Mangelsdorf et al. The Retinoids: Biology, Chemistry and Medicine, pp 319-349, Raven Press Ltd., New York, which are expressly incorporated herein by reference. The results obtained in this assay are expressed in EC50 numbers, as they are also in the chimeric receptor transactivation assay. The results of ligand binding assay are expressed in Kd numbers. (See Cheng et al. Biochemical Pharmacology Vol. 22 pp 3099-3108, expressly incorporated herein by reference.)

[2] = target: T2, RARβ (Homo sapiens, UniProt P10826); experiment: RARβ ligand binding (Table 2); conditions: RAR β
T2 sequence (P10826 1-448 isoform P10826-2): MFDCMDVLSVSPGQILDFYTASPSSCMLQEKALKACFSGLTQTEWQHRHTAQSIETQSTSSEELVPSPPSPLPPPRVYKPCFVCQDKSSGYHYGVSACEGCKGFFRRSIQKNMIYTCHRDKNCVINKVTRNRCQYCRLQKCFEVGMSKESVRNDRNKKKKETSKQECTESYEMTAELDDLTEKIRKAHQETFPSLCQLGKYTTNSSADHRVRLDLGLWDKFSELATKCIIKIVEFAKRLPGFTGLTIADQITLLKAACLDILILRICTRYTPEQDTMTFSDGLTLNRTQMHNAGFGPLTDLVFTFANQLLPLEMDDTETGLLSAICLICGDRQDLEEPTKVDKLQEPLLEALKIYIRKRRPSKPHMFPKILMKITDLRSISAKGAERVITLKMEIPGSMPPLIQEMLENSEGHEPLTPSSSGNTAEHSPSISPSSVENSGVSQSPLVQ
From the text: as §1
as §2, with “(See Cheng et al. Biochemical Pharmacology Vol. 22 pp 3099-3108, expressly incorporated herein by reference.)” left out

[3] = target: T3, RARα (Homo sapiens, UniProt P10276); experiment: RARα ligand binding (Table 2); conditions: RAR α
T3 sequence (P10276 1-462): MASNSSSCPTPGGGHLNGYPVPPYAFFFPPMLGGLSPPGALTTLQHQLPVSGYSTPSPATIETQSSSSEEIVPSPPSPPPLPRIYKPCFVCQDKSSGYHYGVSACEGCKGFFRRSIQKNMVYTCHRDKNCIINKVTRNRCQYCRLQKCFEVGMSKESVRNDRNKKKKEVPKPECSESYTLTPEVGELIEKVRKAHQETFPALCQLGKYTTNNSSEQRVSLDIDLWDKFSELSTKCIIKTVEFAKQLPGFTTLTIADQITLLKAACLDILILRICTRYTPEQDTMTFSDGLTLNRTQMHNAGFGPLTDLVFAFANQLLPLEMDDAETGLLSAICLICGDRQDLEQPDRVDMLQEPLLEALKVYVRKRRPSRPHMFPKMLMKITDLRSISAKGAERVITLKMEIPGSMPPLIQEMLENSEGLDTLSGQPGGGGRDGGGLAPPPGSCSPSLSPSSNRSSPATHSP
From the text: as §1
as §2, with “(See Cheng et al. Biochemical Pharmacology Vol. 22 pp 3099-3108, expressly incorporated herein by reference.)” left out

[4] = target: T4, RXRγ (Mus musculus, UniProt P28705); experiment: RXRγ ligand binding (Table 1); conditions: RXR γ
T4 construct: expressed in transfected cells
T4 sequence (P28705 1-463): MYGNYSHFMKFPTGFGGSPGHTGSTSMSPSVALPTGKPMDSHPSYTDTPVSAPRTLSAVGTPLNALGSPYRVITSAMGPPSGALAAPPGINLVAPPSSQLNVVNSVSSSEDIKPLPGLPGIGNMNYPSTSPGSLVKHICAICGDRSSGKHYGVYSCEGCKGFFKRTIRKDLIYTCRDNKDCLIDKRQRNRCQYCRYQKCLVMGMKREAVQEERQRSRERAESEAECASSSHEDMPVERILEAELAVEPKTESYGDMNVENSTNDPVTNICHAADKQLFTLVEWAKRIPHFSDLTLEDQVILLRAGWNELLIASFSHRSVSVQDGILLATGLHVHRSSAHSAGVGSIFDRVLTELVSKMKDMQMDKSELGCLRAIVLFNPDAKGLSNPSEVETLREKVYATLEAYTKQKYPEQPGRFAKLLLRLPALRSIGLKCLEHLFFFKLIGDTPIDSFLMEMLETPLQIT
From the text: as §1
as §2, with “(See Cheng et al. Biochemical Pharmacology Vol. 22 pp 3099-3108, expressly incorporated herein by reference.)” left out

[5] = target: T4, RXRγ; experiment: RXRγ receptor transactivation (Table 1); type: cell-based; conditions: RXR γ; for Emax: read-out: % Eff
From the text: as §1, §2

[6] = target: T5, RARγ (Homo sapiens, UniProt P13631); experiment: RARγ ligand binding (Table 2); conditions: RAR γ
T5 sequence (P13631 1-454): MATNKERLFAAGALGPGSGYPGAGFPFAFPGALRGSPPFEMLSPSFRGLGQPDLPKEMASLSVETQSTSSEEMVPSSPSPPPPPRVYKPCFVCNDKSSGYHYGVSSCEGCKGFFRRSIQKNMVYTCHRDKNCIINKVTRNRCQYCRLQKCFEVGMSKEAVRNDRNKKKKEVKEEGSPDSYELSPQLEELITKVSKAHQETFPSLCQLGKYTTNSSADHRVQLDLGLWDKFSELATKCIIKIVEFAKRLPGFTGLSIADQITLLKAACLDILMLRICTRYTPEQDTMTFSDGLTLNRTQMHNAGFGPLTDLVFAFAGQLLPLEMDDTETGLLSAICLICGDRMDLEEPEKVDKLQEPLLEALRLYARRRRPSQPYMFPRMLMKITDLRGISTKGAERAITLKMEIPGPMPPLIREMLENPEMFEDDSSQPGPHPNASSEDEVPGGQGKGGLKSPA
From the text: as §1
as §2, with “(See Cheng et al. Biochemical Pharmacology Vol. 22 pp 3099-3108, expressly incorporated herein by reference.)” left out

[7] = target: T6, RXRβ (Mus musculus, UniProt P28704); experiment: RXRβ receptor transactivation (Table 1); type: cell-based; conditions: RXR β; for Emax: read-out: % Eff
T6 construct: expressed in transfected cells
T6 sequence (P28704 1-520): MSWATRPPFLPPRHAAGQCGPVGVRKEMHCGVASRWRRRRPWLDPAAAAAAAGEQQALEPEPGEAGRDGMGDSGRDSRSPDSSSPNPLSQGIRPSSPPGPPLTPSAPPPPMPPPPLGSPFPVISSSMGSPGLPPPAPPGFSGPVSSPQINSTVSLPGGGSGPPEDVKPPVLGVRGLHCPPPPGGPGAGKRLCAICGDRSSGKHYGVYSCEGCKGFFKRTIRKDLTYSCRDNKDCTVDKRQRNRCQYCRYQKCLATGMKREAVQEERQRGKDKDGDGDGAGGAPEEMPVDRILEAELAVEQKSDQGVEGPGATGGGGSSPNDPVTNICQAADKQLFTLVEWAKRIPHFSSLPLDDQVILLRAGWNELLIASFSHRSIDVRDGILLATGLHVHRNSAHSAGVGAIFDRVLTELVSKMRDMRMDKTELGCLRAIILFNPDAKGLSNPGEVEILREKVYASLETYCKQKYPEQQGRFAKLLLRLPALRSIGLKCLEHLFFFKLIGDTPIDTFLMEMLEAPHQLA
From the text: as §1, §2

[8] = target: T1, RXRα; experiment: RXRα ligand binding (Table 1); conditions: RXR α
From the text: as §1
as §2, with “(See Cheng et al. Biochemical Pharmacology Vol. 22 pp 3099-3108, expressly incorporated herein by reference.)” left out

EC50 [1] [nM] | Emax [1] [%] | Kd [2] [nM] | Kd [3] [nM] | Kd [4] [nM] | EC50 [5] [nM] | Emax [5] [%] | Kd [6] [nM] | EC50 [7] [nM] | Emax [7] [%] | Kd [8] [nM] | Compound
0.077 | 107 | > 10000 | > 10000 | 3.1 | 0.085 | 115 | > 10000 | 0.627 | 109 | 1.4 | CC(/C=C/[C@@H]1C[C@]1(C)c1ccc2c(c1)C(C)(C)CC(=O)N2C(C)C)=C\C(=O)O [Compound 1, (6S,7S)-7-(4,4-Dimethyl-2-oxo-1-(2-propyl)-1,2,3,4-tetrahydroquinolin-6-yl)-6,7-methano-3-methyl-octa-2E,4E-dienoic acid]
0.15 | 110 | 10000 | > 30000 | 4.1 | 0.31 | 101 | 12000 | 0.42 | 115 | 0.35 | CC(/C=C/[C@@H]1C[C@]1(C)c1ccc2c(c1)C(C)(C)CCN2C(=O)OC(C)(C)C)=C\C(=O)O [Compound 17]
0.064 | 160 | 31000 | 27000 | 10.5 | 0.059 | 137 | 25000 | 0.376 | 144 | 0.97 | CC(/C=C/[C@@H]1C[C@]1(C)c1ccc2c(c1)C(C)(C)CC(=S)N2C(C)C)=C\C(=O)O [Compound 2, (6S,7S)-7-(4,4-Dimethyl-1-(2-propyl)-2-thioxo-1,2,3,4-tetrahydroquinolin-6-yl)-6,7-methano-3-methyl-octa-2E,4E-dienoic acid]

From patent publication US6048873A, “Tetrahdroquinolin-2-one 6 or 7-yl, tetrahdroquinilin-2-thione 6 or 7-yl pentadienoic acid and related derivatives having retinoid-like biological activity” (Allergan Sales, Inc., priority 1998, dated 2000)
